Experimental data: US20110097426A1, “Methods for Safe and Effective Treatment Using Oxazaphosphorine Drugs” (Accentia Biopharmaceuticals, Inc., priority 2007, published 2011)
Read-outs that look alike come from different tables or passages of the source.

Experiments:
[1] = test system: white blood cell (WBC) count
Description: Nine patients were treated 50 mg/kg/day cyclophosphamide intravenously for four days (on Day-3 to Day 0).
On Day 6, (six days after completion of high-dose cyclophosphamide treatment), patients received G-CSF.

[2] = test system: patients with aggressive relapsing-remitting multiple sclerosis
Description: All 9 patients had aggressive relapsing-remitting multiple sclerosis, 8 of whom failed conventional therapy and 1 was untreated. Median age at time of entry was 29 years (range of 20 to 47 years). The mean number of gadolinium enhancing lesions on baseline MRI was 6.5 (range 3-11).

## O=P1(N(CCCl)CCCl)NCCCO1 (stereo not shown) [cyclophosphamide]
[1]; patient HiCy01
  minimum WBC: 70
[1]; patient HiCy07
  minimum WBC: 6
[1]; patient HiCy11
  minimum WBC count: 24
[1]; patient HiCy14
  minimum WBC: 31
[1]; patient HiCy19
  minimum WBC count: 50
[1]; patients HiCy05 and HiCy13, within two weeks of treatment
  WBC count: 0
[1]; patients HiCy09 and HiCy15 (both)
  minimum WBC count: 12
[2]; 50 mg/kg/day i.v. for four days, 9 patients
  reduction in disability (EDSS): 50%
[2]; at 6 months, 50 mg/kg/day i.v. for four days, 9 patients
  reduction in gadolinium enhancements: 90%
[2]; by 18 months, 50 mg/kg/day i.v. for four days, 9 patients
  reduction in gadolinium enhancements: 94%
[2]; initial cohort of 9 patients with severe relapsing MS
  adverse outcomes: no significant adverse outcomes
[2]; of 9 patients
  patients having no disability (EDSS score of 0): 3 patients
  patients with EDSS score of 1: 1 patient
[2]; of 9 patients, started on conventional MS therapy at 18 months
  patients with an exacerbation during follow-up: one
[2]; patient HiCy01
  gadolinium enhancing lesions (GEL) at subsequent follow-up visits: did not have any GEL
[2]; patients HiCy05 and HiCy13, up to 24 months follow-up
  gadolinium enhancing lesions (GEL) at follow-up: no gadolinium enhancing lesions
[2]; patients HiCy07 and HiCy14, who first went to 0 GEL
  gadolinium enhancing lesions (GEL) on follow-up MRIs: a single GEL
[2]; patients HiCy09 and HiCy15
  gadolinium enhancing lesions (GEL): 0
[2]; patients HiCy11 and HiCy19 (HiCy19 only 6 months of follow-up)
  gadolinium enhancing lesions (GEL) at follow-up: always had GEL on every follow up
